From patent publication US12390472B2 (SUZHOU SINOVENT PHARMACEUTICALS CO., LTD., priority 2018, dated 2025)
Where two headings read alike, the source gives them in different places.

Columns and labels:
[1] = biological target: EZH2 (wt) (Homo sapiens (Human), UniProt Q15910); assay: Test on EZH2 (wt) inhibitory activity ([3H]-SAM Flashplate); type: biochemical
Procedure: Protocols Compounds at different concentrations were dissolved in 100% DMSO and transferred to test plates, and the final concentration of DMSO was 1%. The enzyme solution and the mixture solution of peptide and [3H]-SAM were prepared with 1-fold reaction buffer. 10 uL of enzyme solution was added to the test plate and wells only added with 10 uL of reaction buffer were used as negative control wells. After incubation at room temperature for 15 min, the plate was added with 10 uL of the mixture solution of peptide and [3H]-SAM per well to initiate the reaction which lasts for 60 min at room temperature. The pre-cooled SAM was added to 1-fold reaction buffer to prepare a stop buffer. The reaction was stopped by adding 10 uL of stop buffer per well. 25 uL of solution was transferred from the reaction plate to Flashplate and incubated at room temperature for at least 1 h. The Flashplate was washed 3 times with dH2O+0.1% Tween-20. The plate was read by Microbeta.
Data were fitted by GraphPad Prism 5 software and inhibition rate was calculated according to equation (1) Inh %=(Max−Signal)/(Max−Min)×100 (1)
IC50 was calculated using equation (2) Y=Bottom+(Top−Bottom)/(1+10^((Log IC50−X)×Hill Slope))
Y: inhibition rate; X: concentration of the compound

[2] = system: WSU-DLCL2 cells; assay: Experiment on WSU-DLCL2 cell proliferation (Calcein-AM); type: cell-based; details: Homo sapiens
Procedure: WSU-DLCL2 cells were plated in a 96-well plate and 100 uL of cells (a density of 1×10^5 cells/mL) and 50 uL of compound stock at 3-fold concentration was added to each well, and the final volume was 150 uL/well. After 6 days of culturing, on day 7, the cells in the well plate were mixed well by pipetting, and 50 uL of the cell suspension was pipetted to be tested for cell viability using Calcein-AM. 50 uL of the cell suspension was added to a 96-well plate coated by poly-D-Lysine, and then 50 uL of HBSS containing 2 uM Calcein-AM was added to make the final concentration of Calcein-AM 1 uM. After incubation for 10 min at room temperature, the cells were rapidly centrifuged to be deposited on the bottom of the plate. The cells were cultured in the incubator for another 40 min and then the plate was read on Acumen.
The remaining cells were diluted and then plated in a 96-well plate, and 100 uL of cells and 50 uL of a compound at 3-fold concentration were added to each well for further culturing until day 14, and the cell viability was detected as described above. The IC50 was calculated.

[3] = system: Pfeiffer cells; assay: Experiment on Pfeiffer cell proliferation (CellTiter-Glo); type: cell-based, human; details: Homo sapiens
Procedure: 90 uL of cells were added to each well of a 96-well plate at 12000 cells/well, and cell-free culture medium was added to blank control wells. The plate was incubated overnight in an incubator at 37° C., 5% CO2 and 100% relative humidity. The compounds were diluted from highest to lowest concentration gradient with DMSO to make stock solutions at 400-fold and 10-fold concentration. 10 μL of 10× compound working solution was added to the cell culture plate, and the total concentration of the compound was detected from 10 μM, 9 concentration points in total, and 3-fold serial dilution was performed. 10 μL of DMSO-cell culture medium mixture solution was added to the vehicle control wells and blank control wells. The final concentration of DMSO was 0.25%. The plate was put back in the incubator for another 7 days of culturing.
The cell culture plate cultured for 7 days was taken out of the incubator, and the suspended cells in the 96-well plate were mixed well by pipetting multiple times. 74 uL of fresh cell culture medium was added to a new 96-well plate, and 16 uL of cell suspension was pipetted from the 96-well plate with cells mixed well by pipetting into the new 96-well plate to bring the total volume to 90 uL. Cells in the new 96-well plate were treated with the compound. The new 96-well plate was put back in the incubator for another 7 days of culturing, and then cell viability was detected directly.
84 μL of cell suspension was taken from the cell culture plate for cell viability detection.
CellTiter-Glo buffer and substrate were thawed and balanced to room temperature. The CellTiter-Glo buffer was added to a bottle of CellTiter-Glo substrate to dissolve the substrate, thereby preparing CellTiter-Glo working solution. The bottle was subjected to slow vortex shaking to completely dissolve the substrate. The cell culture plate was taken out and balanced to room temperature for 30 min. 50 μL of CellTiter-Glo working solution was added to each well. The cell plate was wrapped with aluminum foil to keep out of light. The plate was shaken on an orbital shaker for 2 min to induce cell lysis. The plate was placed at room temperature for 10 min to stabilize the luminescence signals. The luminescence signals were detected on 2104 En Vision plate reader.
Inhibition rates of compounds at different concentrations were calculated in Excel, followed by plotting the inhibition curves and calculating relevant parameters including minimum (%), maximum (%), and absolute IC50 using GraphPad Prism software.

[4] = In vivo pharmacokinetic properties in mice; set-up: species or system mouse; details: male ICR mice
Outline: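 Male ICR mice, n=3 per group, dosed once at 5 mg/kg IV in 10% DMSO/90% (20% Captisol) or 250 mg/kg intragastrically in 0.5% CMC-Na/0.1% Tween 80 (pH 3-4). EDTA-K2 plasma sampled from 5 min to 24 h; compound levels measured by LC-MS/MS.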

Sequence of EZH2 (wt) (Q15910 whole entry): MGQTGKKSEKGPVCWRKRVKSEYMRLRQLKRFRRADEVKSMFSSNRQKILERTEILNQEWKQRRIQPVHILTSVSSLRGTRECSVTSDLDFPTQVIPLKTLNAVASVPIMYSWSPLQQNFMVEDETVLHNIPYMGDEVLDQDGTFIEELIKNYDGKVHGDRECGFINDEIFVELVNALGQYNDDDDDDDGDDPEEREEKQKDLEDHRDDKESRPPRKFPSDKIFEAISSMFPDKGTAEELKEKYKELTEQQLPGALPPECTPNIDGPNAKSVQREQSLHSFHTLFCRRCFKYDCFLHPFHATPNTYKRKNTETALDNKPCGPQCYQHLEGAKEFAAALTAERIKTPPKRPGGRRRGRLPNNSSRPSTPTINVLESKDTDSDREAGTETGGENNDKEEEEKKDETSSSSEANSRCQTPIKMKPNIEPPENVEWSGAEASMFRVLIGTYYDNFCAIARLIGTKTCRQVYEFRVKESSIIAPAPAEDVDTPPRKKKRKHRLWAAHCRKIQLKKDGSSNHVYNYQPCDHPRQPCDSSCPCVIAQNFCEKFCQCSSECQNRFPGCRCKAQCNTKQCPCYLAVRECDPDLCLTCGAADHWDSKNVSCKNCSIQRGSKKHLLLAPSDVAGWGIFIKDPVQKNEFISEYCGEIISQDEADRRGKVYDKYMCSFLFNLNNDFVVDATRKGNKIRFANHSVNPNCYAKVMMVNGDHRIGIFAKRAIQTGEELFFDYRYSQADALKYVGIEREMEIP
Sequence of EZH2 (wt) (O75530 whole entry partner): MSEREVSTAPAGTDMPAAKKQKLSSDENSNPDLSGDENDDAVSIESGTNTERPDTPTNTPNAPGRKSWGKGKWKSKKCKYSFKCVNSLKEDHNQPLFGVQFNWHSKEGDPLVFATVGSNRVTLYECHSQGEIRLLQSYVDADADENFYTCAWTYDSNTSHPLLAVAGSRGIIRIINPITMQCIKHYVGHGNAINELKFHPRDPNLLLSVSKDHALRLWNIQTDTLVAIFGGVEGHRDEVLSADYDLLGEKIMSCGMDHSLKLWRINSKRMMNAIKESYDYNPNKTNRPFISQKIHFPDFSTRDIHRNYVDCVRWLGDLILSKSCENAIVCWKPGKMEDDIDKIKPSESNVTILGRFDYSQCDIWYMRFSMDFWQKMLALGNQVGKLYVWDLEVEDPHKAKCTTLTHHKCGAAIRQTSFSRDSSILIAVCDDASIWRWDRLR
Sequence of EZH2 (wt) (Q15022 whole entry partner): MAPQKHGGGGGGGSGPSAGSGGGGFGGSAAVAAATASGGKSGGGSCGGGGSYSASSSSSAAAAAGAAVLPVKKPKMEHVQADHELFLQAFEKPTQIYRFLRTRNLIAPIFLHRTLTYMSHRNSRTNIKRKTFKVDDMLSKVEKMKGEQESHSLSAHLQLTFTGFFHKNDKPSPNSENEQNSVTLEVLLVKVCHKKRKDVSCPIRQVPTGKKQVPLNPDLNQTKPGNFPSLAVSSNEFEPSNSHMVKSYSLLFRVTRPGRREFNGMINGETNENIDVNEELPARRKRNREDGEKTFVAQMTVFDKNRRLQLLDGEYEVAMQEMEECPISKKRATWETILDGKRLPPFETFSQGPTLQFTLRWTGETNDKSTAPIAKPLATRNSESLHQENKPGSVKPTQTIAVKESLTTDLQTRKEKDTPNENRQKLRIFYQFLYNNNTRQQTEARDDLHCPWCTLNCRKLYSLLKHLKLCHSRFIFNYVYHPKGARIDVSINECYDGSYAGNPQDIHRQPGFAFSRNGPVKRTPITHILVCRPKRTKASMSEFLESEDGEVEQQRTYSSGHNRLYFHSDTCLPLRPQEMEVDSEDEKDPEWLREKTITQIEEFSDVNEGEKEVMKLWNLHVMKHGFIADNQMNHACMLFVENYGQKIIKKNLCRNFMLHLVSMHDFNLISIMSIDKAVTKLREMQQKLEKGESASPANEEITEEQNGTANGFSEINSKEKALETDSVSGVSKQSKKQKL

Question: For CCN(c1cc(O[C@H]2C[C@H](N3C[C@@H](C)O[C@@H](C)C3)C2)cc(C(=O)NCc2c(C)cc(C)[nH]c2=O)c1C)C1CCC(F)(F)CC1 [Example 45, 3-((4,4-difluorocyclohexyl)(ethyl)amino)-N-((4,6-dimethyl-2-oxo-1,2-dihydropyridin-3-yl)methyl)-5-(trans-3-(cis-2,6-dimethylmorpholinyl)cyclobutoxy)-2-methylbenzamide], which IC50 [1] is on record?
Answer: The IC50 was 2.3 nM.

Question: What about the IC50 ([2]; WSUDLCL2, 168 h, WSU-DLCL2, Day 7, read-out: IC50 WSU-DLCL2 proliferation Day 7) of the same compound?
Answer: Its IC50 is 91 nM.

Question: And the IC50 ([2]; WSUDLCL2, 336 h, WSU-DLCL2, Day 14, read-out: IC50 WSU-DLCL2 proliferation Day 14)?
Answer: The IC50 was 18 nM.

Question: And the IC50 ([3]; 168 h, Day 7, read-out: IC50 Pfeiffer proliferation Day 7)?
Answer: Its IC50 is 69 nM.

Question: What about the IC50 ([3]; 336 h, Day 14, read-out: IC50 Pfeiffer proliferation Day 14) of the same compound?
Answer: Its IC50 is 9.7 nM.

Question: And the F ([4]; intragastric 250 mg/kg vs intravenous 5 mg/kg)?
Answer: The F was 43.5%.

Question: And the CL ([4]; single intravenous 5 mg/kg and intragastric 250 mg/kg study)?
Answer: Its CL is 37.0 ± 8.82 mL/min/lg.

Question: What about the AUC(0-inf) ([4]; mouse, plasma, oral, single intravenous 5 mg/kg and intragastric 250 mg/kg study) of the same compound?
Answer: The AUC(0-inf) was 50900 ng·h/mL.

Question: And the Cmax ([4]; mouse, plasma, oral, single intravenous 5 mg/kg and intragastric 250 mg/kg study, read-out: Cmax)?
Answer: Its Cmax is 10500 ± 436 ng/mL.

Question: What about the Tmax ([4]; mouse, plasma, oral, single intravenous 5 mg/kg and intragastric 250 mg/kg study, read-out: Tmax) of the same compound?
Answer: The Tmax was 1 h.

Question: And the half-life ([4]; mouse, plasma, single intravenous 5 mg/kg and intragastric 250 mg/kg study)?
Answer: The half-life was 7.44 ± 2.75 h.
